Data: patent publication US12624044B2, “SMARCA degraders and uses thereof” (Kymera Therapeutics, Inc., priority 2019, dated 2026)

Biological target: SMARCA2 (Homo sapiens, UniProt P51531)
Test: MSD SMARCA2 degradation in NCI-H1299 cell line (24 h)
Format: cell-based
Design: HC: NCI-H1299 cells treated with DMSO; host or cells: NCI-H1299
Conditions: for Dmax: NCI-H1299, NCI-H1299 cells; for DC50: NCI-H1299 cells, read-out: SMARCA2 MSD H1299 degradation 24 h: External Abs-DC50
Description: Example 32. MSD SMARCA2 Degradation in […] Cell Line
Cell Culture: Cells were cultured in exponential growth phase.
Compound Preparation and Treatment: NCI-H1299 cells were seeded into the 96-well plate at 4.0*10^4 cells per 100 ul per well. Incubate the plate in the incubator overnight. The next day, compounds were diluted to designed stock concentration by TECAN, then perform a 3 fold, 9-point dilution via transferring 15 uL compound into 30 μL DMSO using Apricot. 200 nL diluted compound from compound source plate were transferred into the 96-intermediate plate as designated by using Echo550, followed with 100 ul culture medium to make the 2× compound solution. Cell plate were changed with 80 ul of fresh culture medium and 80 ul of 2× compound solution was added into the well to achieve the final designed concentration. Cell plate was then shaken at 720 rpm for 5 min and incubated for 24 hours in the incubator.
Sample Preparation: Media was aspirated from the cultures and the plate was washed with PBS twice. 60 ul of pre-chilled PIPA lysis buffer (Boston BioProducts BP-115D) with protease inhibitor were directly added into the well to lyze the cells for 20 minutes at 4° C. Cell lysates were collected.
MSD Procedure: The MSD plate was coated with 40 ul cell lysate and incubated at 4° C. overnight. The next day, the MSD coated bare plate was washed 3 times with 150 ul 1×TBST per well, blocked with 150 ul of blocking buffer per well, and shaken for 1 hour at RT, 600 rpm. Blocking buffer was 3% Blocker A in TBST. MSD plate was then washed 3 times with 150 ul 1×TBST per well and Primary Detection antibody (Rabbit anti-SMARCA2/BRM antibody, 100 μg/ml, ab223735) was added to a final [conc.]: 0.3 ug/ml, 25 ul/well and shaken for 1 hour at RT, 600 rpm. Antibody was prepared in Antibody Detection buffer (1% Blocker A in 1×TBST). The MSD plate was then washed 3 times with 150 ul 1×TBST per well. Secondary Detection antibody (SULFO-TAG anti-species antibody) was then added to a final [conc.]: 1 ug/ml, 25 ul/well, and shaken for 1 hour at RT, 600 rpm. Antibodies were prepared in Antibody Detection buffer (1% Blocker A in 1×TBST). MSD plate was washed 3 times with 150 ul 1×TBST per well and 2×MSD reading buffer was added, 150 ul per well, and diluted from 4× with water. MSD instrument was then read.
Data Analysis: The percentage of relative level of SMARCA2 level was calculated following equation below.
LC: A2780, SMARCA2 negative cells. HC: NCI-H1299 cells treated with DMSO.
The letter codes for the percentage of SMARCA2 degradation after 24 hours (Dmax %) include: A (>90% degradation), B (>70-90 degradation), C (50-70 degradation), and D (<50% degradation).

SMARCA2, sequence (P51531 whole entry): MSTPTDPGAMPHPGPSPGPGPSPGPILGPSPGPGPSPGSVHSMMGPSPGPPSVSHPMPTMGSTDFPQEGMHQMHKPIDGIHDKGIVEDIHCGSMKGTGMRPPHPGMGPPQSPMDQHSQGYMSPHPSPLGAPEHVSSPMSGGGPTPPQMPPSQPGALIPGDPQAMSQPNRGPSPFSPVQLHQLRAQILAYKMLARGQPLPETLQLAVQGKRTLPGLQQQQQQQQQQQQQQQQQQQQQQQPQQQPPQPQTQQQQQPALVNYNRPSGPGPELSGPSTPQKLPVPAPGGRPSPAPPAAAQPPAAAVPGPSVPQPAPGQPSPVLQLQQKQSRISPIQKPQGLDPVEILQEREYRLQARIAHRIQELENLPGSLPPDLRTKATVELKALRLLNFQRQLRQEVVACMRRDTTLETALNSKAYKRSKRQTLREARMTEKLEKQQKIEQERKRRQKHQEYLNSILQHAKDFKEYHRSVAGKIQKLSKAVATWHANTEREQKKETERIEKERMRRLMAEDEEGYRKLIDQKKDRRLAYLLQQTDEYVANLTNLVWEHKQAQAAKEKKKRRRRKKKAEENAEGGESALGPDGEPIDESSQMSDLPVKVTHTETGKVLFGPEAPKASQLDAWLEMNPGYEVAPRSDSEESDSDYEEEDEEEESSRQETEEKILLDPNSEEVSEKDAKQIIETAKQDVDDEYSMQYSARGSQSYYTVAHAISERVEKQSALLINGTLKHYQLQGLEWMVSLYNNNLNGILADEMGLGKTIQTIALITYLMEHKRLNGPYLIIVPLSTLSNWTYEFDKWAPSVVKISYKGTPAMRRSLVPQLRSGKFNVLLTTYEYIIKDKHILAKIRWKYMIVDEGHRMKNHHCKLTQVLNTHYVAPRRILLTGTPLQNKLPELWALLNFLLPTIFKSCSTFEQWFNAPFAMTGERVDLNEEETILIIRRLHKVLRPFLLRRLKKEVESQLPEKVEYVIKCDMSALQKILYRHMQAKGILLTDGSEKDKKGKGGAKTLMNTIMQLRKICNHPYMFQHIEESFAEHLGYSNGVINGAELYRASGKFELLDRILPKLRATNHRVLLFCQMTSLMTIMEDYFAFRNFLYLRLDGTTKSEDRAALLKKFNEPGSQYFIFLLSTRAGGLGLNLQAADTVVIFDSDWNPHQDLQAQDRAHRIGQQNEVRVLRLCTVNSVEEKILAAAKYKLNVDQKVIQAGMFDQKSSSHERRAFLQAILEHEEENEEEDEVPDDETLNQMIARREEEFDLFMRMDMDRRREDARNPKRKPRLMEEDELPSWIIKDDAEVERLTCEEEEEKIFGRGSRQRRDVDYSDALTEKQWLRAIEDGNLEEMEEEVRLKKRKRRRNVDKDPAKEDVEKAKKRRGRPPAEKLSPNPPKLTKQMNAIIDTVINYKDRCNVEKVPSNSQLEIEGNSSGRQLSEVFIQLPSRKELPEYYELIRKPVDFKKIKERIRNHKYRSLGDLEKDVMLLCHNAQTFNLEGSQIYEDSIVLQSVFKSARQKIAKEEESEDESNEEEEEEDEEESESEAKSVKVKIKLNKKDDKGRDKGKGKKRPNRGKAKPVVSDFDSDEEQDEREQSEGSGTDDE

Row | Structure (SMILES) | Dmax [%] | DC50 [nM]
1 | O=C1CCC(n2c(=O)n(CCCCCc3cn(Cc4cccc(N5C[C@H]6C[C@@H]5CN6/C=C/C(=O)c5ccccc5O)n4)nn3)c3ccccc32)C(=O)N1 (stereo partly drawn) [I-55, 3-[3-[5-[1-[[6-[(1R,4R)-5-[(E)-3-(2-hydroxyphenyl)-3-oxo-prop-1-enyl]-2,5-diazabicyclo[2.2.1]heptan-2-yl]-2-pyridyl]methyl]triazol-4-yl]pentyl]-2-oxo-benzimidazol-1-yl]piperidine-2,6-dione] | < 50 | > 1000
2 | O=C1CCC(n2c(=O)n(CCCCCCc3cn(Cc4cccc(N5C[C@H]6C[C@@H]5CN6/C=C/C(=O)c5ccccc5O)n4)nn3)c3ccccc32)C(=O)N1 (some centres unmarked) [I-56] | < 50 | > 1000
3 | O=C1CCC(n2c(=O)n(CCCCCCCc3cn(Cc4cccc(N5C[C@H]6C[C@@H]5CN6/C=C/C(=O)c5ccccc5O)n4)nn3)c3ccccc32)C(=O)N1 (some centres unmarked) [I-57] | < 50 | > 1000
4 | O=C1CCC(n2c(=O)n(CCCCCCCCc3cn(Cc4cccc(N5C[C@H]6C[C@@H]5CN6/C=C/C(=O)c5ccccc5O)n4)nn3)c3ccccc32)C(=O)N1 (some centres unmarked) [I-58] | < 50 | > 1000
5 | Cn1c(=O)n(C2CCC(=O)NC2=O)c2ccc(C#CCCc3cn(Cc4cccc(N5C[C@H]6C[C@@H]5CN6/C=C/C(=O)c5ccccc5O)n4)nn3)cc21 (some centres unmarked) [I-59] | < 50 | > 1000
6 | Cn1c(=O)n(C2CCC(=O)NC2=O)c2ccc(C#CCCCc3cn(Cc4cccc(N5C[C@H]6C[C@@H]5CN6/C=C/C(=O)c5ccccc5O)n4)nn3)cc21 (some centres unmarked) [I-60] | < 50 | > 1000
7 | Cn1c(=O)n(C2CCC(=O)NC2=O)c2ccc(C#CCCCCc3cn(Cc4cccc(N5C[C@H]6C[C@@H]5CN6/C=C/C(=O)c5ccccc5O)n4)nn3)cc21 (some centres unmarked) [I-61] | < 50 | > 1000
8 | Cn1c(=O)n(C2CCC(=O)NC2=O)c2ccc(C#CCCCCCc3cn(Cc4cccc(N5C[C@H]6C[C@@H]5CN6/C=C/C(=O)c5ccccc5O)n4)nn3)cc21 (some centres unmarked) [I-62] | < 50 | > 1000
9 | Cn1c(=O)n(C2CCC(=O)NC2=O)c2ccc(C#CCCCCCCc3cn(Cc4cccc(N5C[C@H]6C[C@@H]5CN6/C=C/C(=O)c5ccccc5O)n4)nn3)cc21 (some centres unmarked) [I-63] | < 50 | > 1000
10 | Cn1c(=O)n(C2CCC(=O)NC2=O)c2cccc(C#CCCc3cn(Cc4cccc(N5C[C@H]6C[C@@H]5CN6/C=C/C(=O)c5ccccc5O)n4)nn3)c21 (some centres unmarked) [I-64] | 70 to 90 | > 1000
11 | Cn1c(=O)n(C2CCC(=O)NC2=O)c2cccc(C#CCCCc3cn(Cc4cccc(N5C[C@H]6C[C@@H]5CN6/C=C/C(=O)c5ccccc5O)n4)nn3)c21 (some centres unmarked) [I-65] | < 50 | > 1000
12 | Cn1c(=O)n(C2CCC(=O)NC2=O)c2cccc(C#CCCCCc3cn(Cc4cccc(N5C[C@H]6C[C@@H]5CN6/C=C/C(=O)c5ccccc5O)n4)nn3)c21 (some centres unmarked) [I-66] | < 50 | > 1000
13 | Cn1c(=O)n(C2CCC(=O)NC2=O)c2cccc(C#CCCCCCc3cn(Cc4cccc(N5C[C@H]6C[C@@H]5CN6/C=C/C(=O)c5ccccc5O)n4)nn3)c21 (some centres unmarked) [I-67] | < 50 | > 1000
14 | Cn1c(=O)n(C2CCC(=O)NC2=O)c2cccc(C#CCCCCCCc3cn(Cc4cccc(N5C[C@H]6C[C@@H]5CN6/C=C/C(=O)c5ccccc5O)n4)nn3)c21 (some centres unmarked) [I-68] | < 50 | > 1000
15 | O=C1CCC(N2C(=O)c3cccc(OCCc4cn(CCCc5cccc(N6C[C@H]7C[C@@H]6CN7/C=C/C(=O)c6ccccc6O)n5)nn4)c3C2=O)C(=O)N1 (some centres unmarked) [I-69] | < 50 | > 1000
16 | O=C1CCC(N2C(=O)c3cccc(OCCCc4cn(CCCc5cccc(N6C[C@H]7C[C@@H]6CN7/C=C/C(=O)c6ccccc6O)n5)nn4)c3C2=O)C(=O)N1 (some centres unmarked) [I-70] | 70 to 90 | > 1000
